One data set deals with LmCPB2.8ΔCTE (CPB) (Leishmania mexicana, UniProt P36400). The following applies: cited from earlier work. From the text:
(§1) In addition to the membrane, peptides may have other therapeutic targets in Leishmania. Enzymes are essential for functional integrity and virulence, highlighting the fundamental role of cysteine proteases in the infectious process, so their inhibition can have high therapeutic potential, enabling the design of new drugs. In L. mexicana, three cysteine protease genes were identified as virulence factors: lmcpa, lmcpb, and lmcpc. Of these, lmcpb encodes a protein product like cathepsin L and is the most abundant in the amastigote form of the parasite, so this enzyme is an i ...

Data set [1] is described as follows: Carboxyfluorescein leakage from POPC-Chol (4:1) vesicles mimicking host membrane. The following applies: POPC–Chol (4:1) LUVs, peptide tested at 1 and 5 µmol L^−1.
Experimental: Large unilamellar vesicles (LUVs) composed of POPC (1-palmitoyl-2-oleoyl-sn-glycero-3-phosphatidylcholine) and cholesterol (Chol) (4:1), or POPC, POPS (1-palmitoyl-2-oleoyl-sn-glycero-3-serine), and ergosterol (Erg) (16:3:1) were prepared according to the methods described by Lorenzón et al. [34]. […] We employed a Hitachi U-2000 spectrophotometer (TSHa) (Hitachi, Tokyo, Japan) or a Fluorolog-3 FL3-122 spectrofluorometer (Horiba Jobin Yvon, Glasgow, UK) ((TSHa)2K) for analyses.
For data set [2], the system named is L. mexicana promastigotes. Description: Membrane damage by flow cytometry with propidium iodide. In kind it is cell-based, Leishmania mexicana. The following applies: 1 × IC50; promastigotes 5 × 10^6 cells mL^−1, PI 80 µg mL^−1 20 min; given in Figure 11. As for the experimental part: The mechanism of action of the peptides on the membrane was also evaluated by flow cytometry using propidium iodide. Flow cytometry has been considered more reliable for studies of cell susceptibility because it provides intrinsic information about cells, such as size and complexity. The use of fluorochromes allows for the evaluation of a wide range of physiological or morphological parameters, such as membrane integrity, pH, membrane potential, and viability. The results presented here (Figure 11) are expressed as the fluorescence intensity of the PI-labeled L. mexicana cells, considering that the damage caused to the parasite membrane facilitated the entry of PI into the cell nucleus.
For flow cytometry assays, the promastigotes of L. mexicana were grown in Schneider medium (Sigma) supplemented with inactivated fetal bovine serum. […] After incubation, the promastigotes were washed twice with PBS and labeled with propidium iodide (PI) (80 μg mL^−1) for 20 min, followed by centrifugation at 2000× g for 10 min and resuspension in 500 μL of PBS. The samples were analyzed using an Accuri C6 flow cytometer (BD Biosciences, Franklin Lakes, NJ, USA) and proprietary software, with at least 50,000 events effectively included in each analysis. All the experiments were performed using biological duplicates in triplicate at each experimental point.
In general terms: A flow cytometer gives signals particle by particle.

Data set [3] concerns L. mexicana promastigotes. Description: Membrane damage by fluorescence microscopy (PI/Hoechst). It is filed as cell-based, Leishmania mexicana. The following applies: 1.25 and 2.5 µmol L^−1, 24 h; ratio PI-labeled / Hoechst-labeled parasites. As for the experimental part: Fluorescence microscopy assays were also employed to investigate the mechanism of action of the peptides. […] In addition, the ratio of PI-labeled cells to Hoechst-labeled cells was used to determine the percentage of cells that had suffered some type of membrane damage. Images were also obtained after the treatments of the promastigote form with the TSHa peptide, the dimeric (TSHa)2K peptide, and the Amp B control drug at concentrations of 2.5 and 1.25 µmol L^−1 after 2 and 24 h to evaluate the mechanism of action of these molecules and whether the time of exposure to the compounds might affect their activity. […] The results for the other treatments are provided in the Supplementary Materials (Figures S1–S10).
For fluorescence microscopy, assays were carried out with promastigotes of L. mexicana in the exponential phase of growth in passage P3 at a concentration of 1 × 10^7 cells mL^−1. Treatments were performed with Amp B and the peptides at concentrations of 1.25 or 2.5 μmol L^−1 for 2 or 24 h, respectively. The parasites were labeled with 5 μg mL^−1 of Hoechst solution (stock: 1 mg mL^−1) for 5 min, followed by the addition of PI (1 mg mL^−1) to a final concentration of 40 μg mL^−1 and incubation for 20 min at room temperature. […] Images were acquired with a fluorescence microscope (Nikon DS-R11,10 Nikon Instruments Inc., Melville, NY, USA) at 40× magnification. […]

Data set [4] has as its system L. mexicana intracellular amastigotes. Nature of the data set: Infection index, L. mexicana intracellular amastigotes in macrophages. The conditions noted are these: 24 h of treatment. In kind it is cell-based, Leishmania mexicana. How it is done: During the infection process, the amastigotes replicated in macrophages are transmitted to healthy cells, leading to the amplification of infection; the greater the parasitic load is, the worse the infection is. The infection index (percentage of infected cells x number of parasites per infected cell) was used to evaluate this transmission. In this work, the infection index was determined using L. mexicana for 24 h (Figure 6) and 48 h of treatment (Figure 7).
The L. amazonensis promastigotes (MPRO/BR/1972/M1841-LV-79) were grown in LIT culture medium, while the L. mexicana promastigotes (MNYC/BZ/62/M379) were cultivated in Schneider’s medium (Sigma-Aldrich, St. Louis, MO, USA), supplemented with 10% heat-inactivated fetal bovine serum (FBS; Gibco/Invitrogen, Waltham, MA, USA) at 28 °C until reaching the mid-log phase of growth. Macrophages were sourced from the peritoneal cavity of Swiss mice using the methodology outlined by de Almeida et al.. Anti-promastigote and anti-amastigote assays of L. mexicana and L. amazonensis and their cytotoxic activity were conducted as previously described. IC50 is the concentration capable of killing 50% of the parasites. […] Cytotoxicity for the host cells and the protozoan species was compared and expressed as the selectivity index (SI), calculated as the ratio of the CC50 for macrophages to the IC50 for the protozoan species.

The subject of data set [5] is L. amazonensis intracellular amastigotes. Description: Infection index, L. amazonensis intracellular amastigotes in macrophages. In kind it is cell-based, Leishmania amazonensis. The following applies: 24 h of treatment.
The conditions of data set [6]: POPC–POPS–Erg (16:3:1) LUVs. How it is done:
To evaluate the effect of monomeric and dimeric peptides on the lipid membrane and relate it to the mechanism of action, vesicle permeabilization studies were carried out for evaluating the possible mechanisms on membrane. The leakage assays were carried out with carboxyfluorescein (CF) internalized in the mimetic membranes. The vesicles of POPC–Chol (4:1) and POPC–POPS (phosphatidylserine)–ergosterol (16:3:1) were employed. These mimetic membranes were designed considering the compositions of phospholipids and steroids in the host membrane and in the Leishmania membrane, respectively. The constitution of the cell membrane of Leishmania varies according to the morphology of the parasite and its stage of development, but is more negative than the cell membranes of mammals, which allow for cationic AMPs to bind more easily. Our studies were based on the membrane of the promastigote form, which is characterized by the presence of mainly phosphatidylcholine, phosphatidylethanolamine, phosphatidylinositol, phosphatidylserine, and ergosterol, in addition to diglycerides and glycolipids containing mannose and galactose. In the amastigote form of Leishmania, there is a higher concentration of fatty acids and cholesterol, while triglycerides and ergosterol decrease during the transition from promastigotes to amastigotes. In addition, the main phospholipids found are sphingomyelin and phosphatidylserine, with lower proportions of phosphatidylinositol and lysophosphatidylethanolamine.
Large unilamellar vesicles (LUVs) composed of POPC (1-palmitoyl-2-oleoyl-sn-glycero-3-phosphatidylcholine) and cholesterol (Chol) (4:1), or POPC, POPS (1-palmitoyl-2-oleoyl-sn-glycero-3-serine), and ergosterol (Erg) (16:3:1) were prepared according to the methods described by Lorenzón et al.. […] We employed a Hitachi U-2000 spectrophotometer (TSHa) (Hitachi, Tokyo, Japan) or a Fluorolog-3 FL3-122 spectrofluorometer (Horiba Jobin Yvon, Glasgow, UK) ((TSHa)2K) for analyses.

Data set [7] has as its system L. amazonensis amastigotes. Description: microbe, parasite or virus in culture. In kind it is cell-based, Leishmania amazonensis. The conditions noted are these: Leishmania amazonensis, read-out: IC50 Amastigote. As for the experimental part:
(§2) Macrophages were sourced from the peritoneal cavity of Swiss mice using the methodology outlined by de Almeida et al.. Anti-promastigote and anti-amastigote assays of L. mexicana and L. amazonensis and their cytotoxic activity were conducted as previously described. […] Cytotoxicity for the host cells and the protozoan species was compared and expressed as the selectivity index (SI), calculated as the ratio of the CC50 for macrophages to the IC50 for the protozoan species.

Data set [8] relates to L. mexicana promastigotes. Description: microbe, parasite or virus in culture. In kind it is cell-based, Leishmania mexicana. The conditions noted are these: Leishmania mexicana, ± standard deviation, SD, read-out: IC50 Promastigote. As for the experimental part:
(§3) The L. amazonensis promastigotes (MPRO/BR/1972/M1841-LV-79) were grown in LIT culture medium, while the L. mexicana promastigotes (MNYC/BZ/62/M379) were cultivated in Schneider’s medium (Sigma-Aldrich, St. Louis, MO, USA), supplemented with 10% heat-inactivated fetal bovine serum (FBS; Gibco/Invitrogen, Waltham, MA, USA) at 28 °C until reaching the mid-log phase of growth. Macrophages were sourced from the peritoneal cavity of Swiss mice using the methodology outlined by de Almeida et al.. Anti-promastigote and anti-amastigote assays of L. mexicana and L. amazonensis and their cytotoxic activity were conducted as previously described. IC50 is the concentration capable of killing 50% of the parasites. The drug concentration that inhibited 50% of cell growth was denoted as the 50% cytotoxic concentration (CC50). Cytotoxicity for the host cells and the protozoan species was compared and expressed as the selectivity index (SI), calculated as the ratio of the CC50 for macrophages to the IC50 for the protozoan species.

The test system of the next data set is peritoneal macrophages. Nature of the data set: Cytotoxicity in peritoneal macrophages. It is filed as cell-based. The following applies: peritoneal macrophages of Swiss mice. As for the experimental part:
as §3

In data set [9] the test system is L. amazonensis promastigotes. Nature of the data set: microbe, parasite or virus in culture. It is filed as cell-based, Leishmania amazonensis. The following applies: Leishmania amazonensis, read-out: IC50 Promastigote. How it is done:
as §3

The test system of a further data set is L. mexicana amastigotes. Nature of the data set: microbe, parasite or virus in culture. It is filed as cell-based, Leishmania mexicana. The conditions noted are these: Leishmania mexicana, ± standard deviation, SD. How it is done:
as §2

The next data set deals with cathepsin B. The following applies: cited from earlier work.
Excerpt: as §1

Data set [10] addresses LmCPB2.8ΔCTE (CPB), cysteine protease of Leishmania mexicana (L. mexicana) (UniProt P36400).

The values below come from paper PMC11547375, “Peptide Dimerization as a Strategy for the Development of Antileishmanial Compounds” (Molecules, 2024).

Like-named read-outs stand apart in the source and are kept apart here. Positions of bridges follow the written chain, without caps; N, C: chain ends. Residues, ends and D or L forms follow the SMILES beside them. Chains are numbered I, II in the order given. No end group written: not given here.

`CC(C)C[C@H](NC(=O)[C@H]1O[C@@H]1C(=O)O)C(=O)NCCCCN=C(N)N` (relative stereo) [Peptide E64, L-trans-epoxysuccinyl-leucylamido-(4-guanidino)butane]: the “inhibition of Leishmania CPB, in words” value at LmCPB2.8ΔCTE (CPB) is given as “in the nanomolar range is a potent irreversible inhibitor”.
As to `CC[C@H](C)[C@H](NC(=O)CNC(=O)[C@H](CO)NC(=O)[C@H](CC(C)C)NC(=O)[C@@H](N)Cc1ccccc1)C(=O)N[C@H](C(=O)NCC(=O)N[C@@H](CCSC)C(=O)N[C@@H](CC(C)C)C(=O)NCC(=O)N[C@@H](CCCCN)C(=O)N[C@@H](CC(C)C)C(=O)N[C@@H](Cc1ccccc1)C(=O)NCCCC[C@H](NC(=O)[C@H](Cc1ccccc1)NC(=O)[C@H](CC(C)C)NC(=O)[C@H](CCCCN)NC(=O)CNC(=O)[C@H](CC(C)C)NC(=O)[C@H](CCSC)NC(=O)CNC(=O)[C@@H](NC(=O)[C@@H](NC(=O)CNC(=O)[C@H](CO)NC(=O)[C@H](CC(C)C)NC(=O)[C@@H](N)Cc1ccccc1)[C@@H](C)CC)C(C)C)C(N)=O)C(C)C` [(TSHa)2K] (I: H-FLSGIVGMLGKLFK-NH2 / II: H-FLSGIVGMLGKLF; amide I:14-II:C; N-terminus assumed), the “permeabilization of POPC–Chol vesicles, in words” value in data set [1] is “No permeabilization”. The “V1-L gate (cells not labeled with PI)” value in [2] is reported as 52.8%. The “V1-R gate (PI-labeled cells)” value in [2] was found to be 47.2%. Besides, the “membrane damage, in words” value in [3] is “caused damage to the membrane”. For the same molecule, the “decrease of infection rate (infection index) vs untreated infected cells” value was determined as 5.5 fold in [4] and 3.8 fold in data set [5]. For the same molecule, the CF release was 20% in data set [6] (peptide 1 µmol L^−1, fluorescence) and 45% in data set [6] (peptide 5 µmol L^−1, fluorescence).
One may read the IC50 as the concentration needed to halve the response being measured. For `C[C@@H]1[C@H](O)[C@@H](C)/C=C/C=C/C=C/C=C/C=C/C=C/C=C/[C@H](O[C@@H]2O[C@H](C)[C@@H](O)[C@H](N)[C@@H]2O)C[C@@H]2O[C@](O)(C[C@@H](O)C[C@@H](O)[C@H](O)CC[C@@H](O)C[C@@H](O)CC(=O)O[C@H]1C)C[C@H](O)[C@H]2C(=O)O` [Amp B, Amphotericin B], the IC50 in data set [7] worked out at 630 ± 20 nM; in data set [8] it was 500 ± 200 nM; in data set [9] it was 700 ± 200 nM; in the data set on L. mexicana amastigotes (24 h of treatment, read-out: IC50 Amastigote 24 h of Treatment) it was 630 ± 1200 nM; with L. mexicana amastigotes (48 h of treatment, read-out: IC50 Amastigote 48 h of Treatment), 630 ± 1200 nM. For the same molecule, the “CC50 Peritoneal Macrophages” value with peritoneal macrophages (Table 1, ± standard deviation, SD) stood at 24000 ± 20 nM. Also, in the data set with peritoneal macrophages (Table 2), the “CC50 Peritoneal Macrophage” value came to 24000 ± 400 nM. Besides, the “V1-L gate (cells not labeled with PI)” value in data set [2] is on record as 55.2%. Also, the “V1-R gate (PI-labeled cells)” value in data set [2] is given as 44.8%. Also, the “membrane damage, in words” value in data set [3] was “caused damage to the membrane”.
`Cc1ccc(C(=O)[C@@]23C(=O)OC(=O)C2N(C)[C@]2(c4ccccc4)Sc4ccccc4[C@H]32)cc1` (stereo partly drawn) [derivative of benzo[b]thiophene, (4aS,9bS,9cS)-4-methyl-9c-(4-methylbenzoyl)-4a-phenyl-4,4a,9b,9c-tetrahydro-1H-benzo[4,5]thieno[2,3-b]furo[3,4-d]pyrrole-1,3(3aH)-dione]: on LmCPB2.8ΔCTE (CPB) (read-out: IC50-CEC, LmCPB2.8△CTE (CEC)), the IC50 is 3700 nM.
The Ki is the equilibrium dissociation constant of an inhibitor or competing ligand from its target. Z-Arg-Leu-Val-Gly-Ile-Val-O-methyl: the inhibitory constant (Ki) at cathepsin B was 0.088 nM.
In the case of dimeric peptide (TSHa)2K, in [10], the IC50 of inhibition of the enzyme activity of CPB (LmCPB2.8ΔCTE) is 3600 nM and the Inhibitory Activity at 20 μmol L^−1 (%): inhibition of the enzyme activity of CPB (LmCPB2.8ΔCTE) by the peptide stood at 98%.
For the molecule FLSGIVGMLGKLF-NH2 [temporin peptide TSHa], in data set [10], the IC50 of inhibition of the enzyme activity of CPB (LmCPB2.8ΔCTE) came out at 9200 nM and the Inhibitory Activity at 20 μmol L^−1 (%): inhibition of the enzyme activity of CPB (LmCPB2.8ΔCTE) by the peptide was 94.2%.
